According to paper PMC4890124, “Antimicrobial activity, improved cell selectivity and mode of action of short PMAP-36-derived peptides against bacteria and Candida” (Scientific Reports, 2016):
Converted amounts (≈) assume the structure as drawn. Marks after values point to notes of the source that are not given here.

Assays:
[1] = system: Bacillus subtilis CMCC 63501; format: cell-based; conditions: lowest concentration killing at least 99.9% of initial inoculum; three independent experiments
Method: (§1) The peptide antibacterial activity was determined against both gram-positive and gram-negative bacteria strains, including Escherichia coli ATCC 25922, Escherichia coli UB1005, Salmonella enterica serovar typhimurium C77-31, Staphylococcus aureus ATCC 29213, Staphylococcus aureus ATCC 25923, Bacillus subtilis CMCC 63501, and Staphylococcus epidermidis ATCC 12228. Clinically isolated Escherichia coli EC183 was provided by the 4th Affiliated Hospital of Harbin Medical University. MIC of the peptides was measured using a modified version of the National Committee for Clinical Laboratory Standards (NCCLS) broth microdilution method as described previously. The bacterial strains were inoculated and grown to mid-log phase in fresh Mueller-Hinton broth (MHB) at 37 °C. Bacterial inoculum suspensions were prepared at a final concentration of approximately 1 × 10^5 CFU/ml. Peptides were 2-fold serially diluted to make different concentrations, from 0.5 to 256 μM. Equal volumes of inoculum suspensions were then added to each well of a sterile 96-well plate with different concentrations of peptides, and the plate was incubated for 18 h at 37 °C. Broth with or without bacteria was employed as the positive control or the negative control, respectively. MIC was defined as the lowest concentration of peptides that prevented visible turbidity by visual inspection. […] After overnight incubation at 37 °C, MBC was defined as the lowest concentration of peptides that killed at least 99.9% of the initial inoculums. Experiments were performed in triplicate with three biological replicates.

[2] = system: Clinically isolated Escherichia coli EC183; format: cell-based; conditions: three independent experiments
Method: as §1

[3] = system: Escherichia coli ATCC 25922; format: cell-based; conditions: lowest concentration killing at least 99.9% of initial inoculum; plated on MHA after MIC incubation; three independent experiments
Method: as §1

Escherichia coli UB1005 [4] = format: cell-based; conditions: lowest concentration killing at least 99.9% of initial inoculum; three independent experiments
Method: as §1

[5] = system: Salmonella enterica serovar typhimurium C77-31; format: cell-based; conditions: lowest concentration killing at least 99.9% of initial inoculum; three independent experiments
Method: as §1

[6] = system: Staphylococcus aureus ATCC 29213; format: cell-based; conditions: lowest concentration killing at least 99.9% of initial inoculum; three independent experiments
Method: as §1

[7] = system: Candida albicans CGMCC 2.2086; test: microbe, parasite or virus in culture; format: cell-based; conditions: three independent experiments
Text: (§2) The antifungal activities were monitored in RPMI-1640 broth medium by a 2-fold microdilution assay according to the Clinical and Laboratory Standards Institute (CLSI) methods. The Candida albicans CGMCC 2.2086, Candida tropicalis CGMCC 2.1975, and Candida krusei CGMCC 2.1857 fungal strains were purchased from the China General Microbiological Culture Collection Center (CGMCC, Beijing, China). Clinically isolated Candida albicans CA2761 was provided by the 4th Affiliated Hospital of Harbin Medical University. Briefly, fungal strains were cultured on YPD agar plates (1% peptone, 0.5% yeast extract, 1% glucose and 2% agar) at 28 °C to prepare Candida suspensions with a turbidity of a 0.5 McFarland standard. A total of 50 μl inoculum cell suspension diluted in RPMI-1640 broth medium was added to an equal volume of peptide solution to achieve a final peptide concentrations ranging from 0.25 μM to 128 μM in a 96-well plate. Pure broth alone or with inoculum suspensions was used as the negative control or the positive control, respectively. The plate was incubated at 28 °C for 48 h. MIC was considered the lowest concentration at which no fungal growth was visually observed under experimental conditions. […] After 48 h incubation at 28 °C, MFC was defined as the lowest concentration of peptides that killed at least 99.9% of the initial inoculums. Experiments were performed in triplicate with three biological replicates.

[8] = system: Candida krusei CGMCC 2.1857; test: microbe, parasite or virus in culture; format: cell-based; conditions: three independent experiments
Text: as §2

[9] = system: Candida tropicalis CGMCC 2.1975; test: microbe, parasite or virus in culture; format: cell-based; conditions: three independent experiments
Text: as §2

[10] = system: C. albicans CA276 (clinical isolate); test: microbe, parasite or virus in culture; format: cell-based, Candida albicans; conditions: three independent experiments
Text: as §2

[11] = system: fungi (four Candida strains); test: Geometric mean MIC and selectivity index, panel of fungi; format: cell-based; conditions: geometric mean of the MIC values against the fungi of Table 3
Text: The antifungal activities were monitored in RPMI-1640 broth medium by a 2-fold microdilution assay according to the Clinical and Laboratory Standards Institute (CLSI) methods. The Candida albicans CGMCC 2.2086, Candida tropicalis CGMCC 2.1975, and Candida krusei CGMCC 2.1857 fungal strains were purchased from the China General Microbiological Culture Collection Center (CGMCC, Beijing, China). Clinically isolated Candida albicans CA2761 was provided by the 4th Affiliated Hospital of Harbin Medical University. Briefly, fungal strains were cultured on YPD agar plates (1% peptone, 0.5% yeast extract, 1% glucose and 2% agar) at 28 °C to prepare Candida suspensions with a turbidity of a 0.5 McFarland standard. A total of 50 μl inoculum cell suspension diluted in RPMI-1640 broth medium was added to an equal volume of peptide solution to achieve a final peptide concentrations ranging from 0.25 μM to 128 μM in a 96-well plate. Pure broth alone or with inoculum suspensions was used as the negative control or the positive control, respectively. The plate was incubated at 28 °C for 48 h. MIC was considered the lowest concentration at which no fungal growth was visually observed under experimental conditions. […]
SI values were determined by the ratio of MHC to GM, indicating the specificity of peptides towards pathogens and eukaryotic cells. […]

[12] = system: Escherichia coli ATCC 25922; conditions: values marked c, determined as previously described; cited from earlier work
Text: Table 2 MIC and MBC of the peptides against bacteria. | column: MIC ^a (MBC ^b) (μM) / Gram-negative bacteria / E. coli 25922

Escherichia coli UB1005 [13] = conditions: values marked c, determined as previously described; cited from earlier work
Text: Table 2 MIC and MBC of the peptides against bacteria. | column: MIC ^a (MBC ^b) (μM) / Gram-negative bacteria / E. coli 1005

[14] = system: Salmonella enterica serovar typhimurium C77-31; conditions: values marked c, determined as previously described; cited from earlier work
Text: Table 2 MIC and MBC of the peptides against bacteria. | column: MIC ^a (MBC ^b) (μM) / Gram-negative bacteria / S. typhi C77-31

[15] = system: Staphylococcus aureus ATCC 29213; conditions: values marked c, determined as previously described; cited from earlier work
Text: Table 2 MIC and MBC of the peptides against bacteria. | column: MIC ^a (MBC ^b) (μM) / Gram-positive bacteria / S. aureus 29213

[16] = system: Staphylococcus aureus ATCC 25923; conditions: values marked c, determined as previously described; cited from earlier work
Text: Table 2 MIC and MBC of the peptides against bacteria. | column: MIC ^a (MBC ^b) (μM) / Gram-positive bacteria / S. aureus 25923

[17] = system: Staphylococcus epidermidis ATCC 12228; conditions: values marked c, determined as previously described; cited from earlier work
Text: Table 2 MIC and MBC of the peptides against bacteria. | column: MIC ^a (MBC ^b) (μM) / Gram-positive bacteria / S. epidermidis 12228

[18] = CLSI 2-fold microdilution, RPMI-1640, 28 °C for 48 h, visual
[19] = lowest concentration killing at least 99.9% of initial inoculum, YPD agar, 48 h at 28 °C

For `CC[C@H](C)[C@H](NC(=O)CN)C(=O)NCC(=O)N[C@@H](C)C(=O)N[C@H](C(=O)N[C@@H](CC(C)C)C(=O)N[C@@H](CCCCN)C(=O)N[C@H](C(=O)N[C@@H](CC(C)C)C(=O)N[C@H](C(=O)N[C@H](C(=O)NCC(=O)N[C@@H](CC(C)C)C(=O)N1CCC[C@H]1C(=O)N[C@@H](C)C(=O)N[C@@H](CC(C)C)C(=O)N[C@H](C(=O)N[C@@H](CO)C(=O)N[C@@H](Cc1c[nH]c2ccccc12)C(=O)N[C@H](C(=O)N[C@@H](CCCCN)C(=O)N[C@@H](CCCNC(=N)N)C(=O)N[C@@H](CCCCN)C(=O)N[C@@H](CCCNC(=N)N)C(=O)N[C@@H](CCC(N)=O)C(=O)N[C@@H](CCC(N)=O)C(N)=O)[C@@H](C)CC)[C@@H](C)CC)[C@@H](C)O)[C@@H](C)O)C(C)C)C(C)C` [melittin, reference compound], the “MBC B. subtilis 63501” value [1] was 2 µM (≈ 5.69 µg/mL), the MIC E. coli EC183 ([2]; broth microdilution, MHB, ~1 × 10^5 CFU/ml, 18 h at 37 °C, visual) was 2 µM (≈ 5.69 µg/mL) and the MBC E. coli EC183 ([2]; lowest concentration killing at least 99.9% of initial inoculum) was 2 µM (≈ 5.69 µg/mL). The “MBC E. coli 25922” value [3] was 4 µM (≈ 11.4 µg/mL), the “MBC E. coli 1005” value (Escherichia coli UB1005 [4]) was 4 µM (≈ 11.4 µg/mL) and the “MBC S. typhi C77-31” value [5] was 2^c (2) μM. For the same compound, the “MBC S. aureus 29213” value [6] was 16 µM (≈ 45.5 µg/mL), the MIC [7, 18] was 4 µM (≈ 11.4 µg/mL) and the MFC [7, 19] was 8 µM (≈ 22.8 µg/mL). For the same compound, the MIC [8, 18] was 2 µM (≈ 5.69 µg/mL), the MFC [8, 19] was 4 µM (≈ 11.4 µg/mL) and the MIC C. tropicalis 2.1975 [9, 18] was 2 µM (≈ 5.69 µg/mL). It also gave an MFC C. tropicalis 2.1975 [9, 19] of 2 µM (≈ 5.69 µg/mL), an MIC [10, 18] of 8 µM (≈ 22.8 µg/mL) and an MFC [10, 19] of 16 µM (≈ 45.5 µg/mL). For the same compound, the “GM (geometric mean of MIC values) Fungi” value [11] was 3.36 µM, the “MIC E. coli 25922” value [12] was 2 µM (≈ 5.69 µg/mL) and the “MIC E. coli 1005” value (Escherichia coli UB1005 [13]) was 2 µM (≈ 5.69 µg/mL). For the same compound, the “MIC S. typhi C77-31” value [14] was 2^c (2) μM, the “MIC S. aureus 29213” value [15] was 8 µM (≈ 22.8 µg/mL) and the “MIC S. aureus 25923” value [16] was 8^c (8) μM. For the same compound, the “MIC S. epidermidis 12228” value [17] was 0.5 µM (≈ 1.42 µg/mL).
